Results on 12 molecules are retold here after patent publication US10647692B2, “Heterocycle-substituted bicyclic azole pesticides” (FMC Corporation, priority 2015, dated 2020).

For orientation: mortality means the percentage killed. Read a high mortality as fewer survivors.

Assay type in all cases: in vivo
The test system of data set [1] is green peach aphid (Myzus persicae (Sulzer)). In words: Test A: control of green peach aphid, foliar spray on pre-infested radish plant. To be noted: 144 h, assessed after 6 days; for mortality at 50 ppm: sprayed at 50 ppm; for mortality at 250 ppm: sprayed at 250 ppm. The protocol: (§1) Test compounds were formulated using a solution containing 10% acetone, 90% water and 300 ppm X-77® Spreader Lo-Foam Formula non-ionic surfactant containing alkylarylpolyoxyethylene, free fatty acids, glycols and isopropanol (Loveland Industries, Inc. Greeley, Colo., USA). The formulated compounds were applied in 1 mL of liquid through a SUJ2 atomizer nozzle with ⅛ JJ custom body (Spraying Systems Co. Wheaton, Ill., USA) positioned 1.27 cm (0.5 inches) above the top of each test unit. Test compounds were sprayed at the rates indicated, and each test was replicated three times.
For evaluating control of green peach aphid (Myzus persicae (Sulzer)) through contact and/or systemic means, the test unit consisted of a small open container with a 12-15-day-old radish plant inside. This was pre-infested by placing on a leaf of the test plant 30-40 aphids on a piece of leaf excised from a culture plant (cut-leaf method). The aphids moved onto the test plant as the leaf piece desiccated. After pre-infestation, the soil of the test unit was covered with a layer of sand.
Test compounds were formulated and sprayed at 250 and/or 50 ppm. After spraying of the formulated test compound, each test unit was allowed to dry for 1 hour and then a black, screened cap was placed on top. The test units were held for 6 days in a growth chamber at 19-21° C. and 50-70% relative humidity. Each test unit was then visually assessed for insect mortality.

In data set [2] the test system is cotton melon aphid (Aphis gossypii (Glover)). Description: Test B: control of cotton melon aphid, foliar spray on pre-infested cotton plant. To be noted: 144 h, assessed after 6 days; for mortality at 50 ppm: sprayed at 50 ppm; for mortality at 250 ppm: sprayed at 250 ppm. The protocol:
as §1
For evaluating control of cotton melon aphid (Aphis gossypii (Glover)) through contact and/or systemic means, the test unit consisted of a small open container with a 6-7-day-old cotton plant inside. This was pre-infested with 30-40 insects on a piece of leaf according to the cut-leaf method, and the soil of the test unit was covered with a layer of sand.
Test compounds were formulated and sprayed at 250 and/or 50 ppm. After spraying, the test units were maintained in a growth chamber for 6 days at 19° C. and 70% relative humidity. Each test unit was then visually assessed for insect mortality.

The test system of data set [3] is Western Flower Thrips (Frankliniella occidentalis). In words: Test D: control of Western Flower Thrips, sprayed Soleil bean plant. To be noted: held for 7 days. The method, then: as §1
For evaluating control of Western Flower Thrips (Frankliniella occidentalis) through contact and/or systemic means, the test unit consisted of a small open container with a 5-7-day-old Soleil bean plant inside.
Test compounds were formulated and sprayed at 250 and/or 50 ppm. After spraying, the test units were allowed to dry for 1 hour, and then 22-27 adult thrips were added to the unit. A black, screened cap was placed on the top of each test unit, and the test units were held for 7 days at 25° C. and 45-55% relative humidity.

Data set [4] has as its system sweetpotato whitefly (Bemisia tabaci (Gennadius)). In words: Test E: control of sweetpotato whitefly, sprayed cotton plant infested with eggs. To be noted: 312 h, assessed after 13 days; for mortality at 250 ppm: sprayed at 250 ppm. The protocol:
as §1
For evaluating control of the sweetpotato whitefly (Bemisia tabaci (Gennadius)) through contact and/or systemic means, the test unit consisted of a small open container with a 12-14-day-old cotton plant inside. Prior to the spray application, both cotyledons were removed from the plant, leaving one true leaf for the assay. Adult whiteflies were allowed to lay eggs on the plant and then were removed from the test unit. Cotton plants infested with at least 15 eggs were submitted to the test for spraying.
Test compounds were formulated and sprayed at 250 and/or 50 ppm. After spraying, the test units were allowed to dry for 1 hour. The cylinders were then removed, and the units were taken to a growth chamber and held for 13 days at 28° C. and 50-70% relative humidity. Each test unit was then visually assessed for insect mortality.

For data set [5], the system named is potato leafhopper (Empoasca fabae). In words: Test C: control of potato leafhopper, sprayed Soleil bean plant, post-infested. To be noted: assessed after 6 days. The method, then:
as §1
For evaluating control of potato leafhopper (Empoasca fabae) through contact and/or systemic means, the test unit consisted of a small open container with a 5-6-day-old Soleil bean plant (primary leaves emerged) inside. White sand was added to the top of the soil and one of the primary leaves was excised prior to application.
Test compounds were formulated and sprayed at 250 ppm and/or 50 ppm. After spraying, the test units were allowed to dry for 1 h before they were post-infested with 5 potato leafhoppers (18-21-day-old adults). A black, screened cap was placed on the top of each test unit, and the test units were held for 6 days in a growth chamber at 24° C. and 70% relative humidity. Each test unit was then visually assessed for insect mortality.

For `CSCCC(=O)c1cccc2nn(-c3cccnc3)cc12` [Compound 2, 3-(methylthio)-1-[2-(3-pyridinyl)-2H-indazol-4-yl]-1-propanone], the mortality at 50 ppm in data set [1] and in data set [2] was at least 80% in each case. In addition, the “control efficacy (plant damage and/or mortality)” value in data set [3] (sprayed at 50 ppm) is on record as 40% or less plant damage and/or 100% mortality.
Consider `CSCCC(=O)c1ccc2nn(-c3cccnc3)cc2c1` [Compound 31], for which the “control efficacy (plant damage and/or mortality)” value in data set [3] (sprayed at 50 ppm) is on record as 40% or less plant damage and/or 100% mortality.
In data set [1], `COCNCCC(=O)c1ccc2nn(-c3cccnc3)cc2c1` [Compound 32, 3-(methoxymethylamino)-1-[2-(3-pyridinyl)-2H-indazol-5-yl]-1-propanone] displayed a mortality at 50 ppm of at least 80% and a mortality at 250 ppm of at least 80%. The mortality at 250 ppm in data set [2] was at least 80%. Moreover, the “control efficacy (plant damage and/or mortality)” value in data set [3] (sprayed at 250 ppm) is reported as 40% or less plant damage and/or 100% mortality.
Turning to `FC(F)(F)c1ccc(Oc2ccc3nn(-c4cccnc4)cc3c2)cc1` [Compound 35], the “control efficacy (plant damage and/or mortality)” value in data set [3] (sprayed at 250 ppm) is listed as 40% or less plant damage and/or 100% mortality.
In data set [1], `CC(C)NC(=O)Cc1ccc2nn(-c3cccnc3)cc2c1` [Compound 38, N-(1-methylethyl)-2-(3-pyridinyl)-2H-indazole-5-acetamide] returned a mortality at 50 ppm of at least 80% and a mortality at 250 ppm of at least 80%. In addition, in data set [2], the mortality at 50 ppm is at least 80% and the mortality at 250 ppm was at least 80%. Also, the “control efficacy (plant damage and/or mortality)” value in data set [3] (sprayed at 250 ppm) is 40% or less plant damage and/or 100% mortality.
`O=C(Cc1ccc2nn(-c3cccnc3)cc2c1)NCC(F)(F)F` [Compound 41]: the “control efficacy (plant damage and/or mortality)” value in data set [3] (sprayed at 250 ppm) is listed as 40% or less plant damage and/or 100% mortality.
Consider `c1cnc(Oc2ccc3nn(-c4cccnc4)cc3c2)nc1` [Compound 42, 2-(3-pyridinyl)-5-(2-pyrimidinyloxy)-2H-indazole], for which, in data set [1], the mortality at 50 ppm is at least 80% and the mortality at 250 ppm was at least 80%. In data set [2], the mortality at 50 ppm was at least 80% and the mortality at 250 ppm was at least 80%.
In data set [1], `O=C(NCC(F)(F)F)C(=O)c1ccc2nn(-c3cccnc3)cc2c1` [Compound 48, α-oxo-2-(3-pyridinyl)-N-(2,2,2-trifluoroethyl)-2H-indazole-5-acetamide] returned a mortality at 50 ppm of at least 80% and a mortality at 250 ppm of at least 80%. In data set [2], the mortality at 250 ppm was at least 80%.
Turning to `CC(C)COc1ccc2nn(-c3cccnc3)cc2c1` [Compound 54, 5-(2-methylpropoxy)-2-(3-pyridinyl)-2H-indazole], the results for the mortality at 50 ppm in data set [1], in data set [2] and in data set [4] (sprayed at 50 ppm) were at least 80%, at least 80% and at least 50%, respectively. The mortality at 250 ppm is at least 80% in data set [1], at least 80% in data set [2] and at least 50% in data set [4].
`CC(C)NC(=O)Cc1ccc2nn(-c3cncc(F)c3)cc2c1` [Compound 56]: the “control efficacy (mortality)” value in data set [5] (sprayed at 50 ppm) and in data set [5] (sprayed at 250 ppm) was at least 80% throughout.
Take `CC(C(=O)NCc1ncccn1)c1ccc2nn(-c3cccnc3)cc2c1` (stereo not drawn) [Compound 59, α-methyl-2-(3-pyridinyl)-N-(2-pyrimidinylmethyl)-2H-indazole-5-acetamide]: the mortality at 50 ppm in data set [1] and in data set [2] was at least 80% each time. Also, the mortality at 250 ppm was at least 80% in data set [1], at least 80% in data set [2] and at least 50% in data set [4].
For the molecule `CC(C(=O)NC(C)(C)C#N)c1ccc2nn(-c3cccnc3)cc2c1` (stereo not drawn) [Compound 85, N-(1-cyano-1-methylethyl)-α-methyl-2-(3-pyridinyl)-2H-indazole-5-acetamide], the mortality at 50 ppm in data set [1] and in data set [2] was at least 80% throughout. Also, the mortality at 250 ppm in data set [1] was at least 80%; in data set [2] it was at least 80%; in data set [4], at least 50%.
